# Values joined by “and” are separate entries in the source; they are usually repeats but may differ in a detail not shown here. Identical values can stand only once.
# What was measured:
# C. elegans [1] = test: mRNA differential display of control and cadmium-treated nematodes; type: in vivo, Caenorhabditis elegans; conditions: cadmium-treated C. elegans cDNA compared to the control
# Procedure: (§1) Growth and isolation of C. elegans—The N2 strain of C. elegans was grown in liquid S medium (0.1M NaCl, 50 mM potassium phosphate, pH 6.0, 5 μg/ml cholesterol, 10 mM potassium citrate, 3 mM CaCl2, 3 mM MgCl2, 50 μM EDTA, 25 μM FeSO4, 10 μM MnCl2, 10 μM ZnSO4 and 1 μM CuSO4) using E. coli OP50 as a food source (Brenner, S. (1974) Genetics 77, 71-94). In experiments where nematodes were exposed to cadmium, the medium was supplemented with 100 μM CdCl2 (Freedman, J. H. et al. (1993) J. Biol. Chem. 268, 2554-2564). C. elegans were grown in the presence of metal for 8 h or 24 h at ˜20° C. Nematodes were then collected following centrifugation at 800×g for 5 min. Pellets were suspended in 5 mM NaCl containing 35% sucrose (final concentration) and viable nematodes were collected from the top of the solution following centrifugation at 1000×g for 5 min at 4° C. Nematodes were then washed three times by suspension in M9 buffer (22 mM KH2PO4, 42 mM Na2HPO4, 85 mM NaCl, 1 mM MgSO4) followed by sedimentation at 800×g. Washed nematode pellets were finally suspended in a small volume of M9 buffer, rapidly frozen in liquid nitrogen and stored at −80° C.
# RNA isolation—Total RNA was isolated from mix-stage populations of C. elegans exposed to 100 μM CdCl2 for 8 h and 24 h and control, non-exposed nematodes. […]
# C. elegans [2] = test: Northern blot analysis of steady-state mRNA levels after cadmium exposure; type: in vivo, Caenorhabditis elegans; conditions: for Fold-change in mRNA levels following cadmium exposure, VL1 (Northern blot): clone VL1 (mtl-1)
# Procedure: as §1
# RNA isolation—Total RNA was isolated from mix-stage populations of C. elegans exposed to 100 μM CdCl2 for 8 h and 24 h and control, non-exposed nematodes. Frozen worms were first ground into a fine powder using a liquid nitrogen-cooled mortar and pestle. Powdered C. elegans (200 mg) were then homogenized in 2 ml of TRIzol (GIBCO/BRL). RNA was then collected from the aqueous phase following the addition of chloroform, precipitated by adding isopropyl alcohol and then air-dried. The dried RNA pellet was then dissolved in diethyl pyrocarbonate (DEPC)-treated water. For some experiments, poly(A^+) RNA was subsequently isolated using the Poly(A) Tract System following manufacturer's instructions (Promega).
# Northern Blot Analysis-Samples of total RNA (20 μg) or poly(A^+) RNA (2 μg) were denatured in a 2.2M formaldehyde/50% (v/v) formamide buffer and then subjected to denaturing gel electrophoresis on a 1.5% agarose/2.2M formaldehyde gel. Size-fractionated RNAs were then transferred to Nytran membrane (Schleicher and Schuell). Membranes were probed with ^32P-labeled cDNA fragments of the differentially expressed mRNAs. cDNAs to be used as probes were generated by the PCR from the cloned DNA fragments recovered from differential display gels. cDNAs were labeled with [α-^32]dCTP (Amersham) by random-primed labeling. Membranes were hybridized in 6 ×SSC (1×SSC=0.15M sodium chloride, 15 mM sodium citrate, pH 7.0), 1.25× Denhardt's solution, 0.5% sodium dodecyl sulfate (SDS), 300 ng denatured sonicated salmon sperm DNA and heat-denatured probe at 42° C. for 16 h. Following hybridization, membranes were washed at a high stringency of 50° C. for 30 min in 0.1×SSC/0.1% SDS. The amount of probe hybridizing to the RNA was determined by PhosphorImager analysis (Molecular Dynamic System) . After images were obtained, membranes were incubated at 95° C. for 1 h in 0.1% SDS to remove the bound probe. They were then hybridized with a ^32P-labeled C. elegans myosin light-chain probe, which served as a loading control (Freedman, J. H. et al. (1993) J. Biol. Chem. 268, 2554-2564). As a positive control, membranes were also hybridized to a ^32P-labeled C. elegans metallothonein-2 (mtl-2) cDNA probe (Freedman, J. H. et al. (1993) J. Biol. Chem. 268, 2554-2564). Quantification of radioactivity was performed using the ImageQuant program (Molecular Dynamic System). Steady-state levels of mRNA expression were all normalized to that of the constitutively expressed myosin light-chain mRNAs (Freedman, J. H. et al. (1993) J. Biol. Chem. 268, 2554-2564; Cummins, C. et al. (198B) Mol. Cell. Biol 8, 5334-5349).
smiles,measurement,setting,value
"[Cl][Cd][Cl] [cadmium, CdCl2]",band intensity of VL9 cDNA in differential display,C. elegans [1],decreased band intensity
same,steady-state level of mtl-2 mRNA,C. elegans [2]; 100 μM CdCl2 for 24 h vs control C. elegans,increased
same,"Fold-change in mRNA levels following cadmium exposure, DDRT16 (Northern blot)","C. elegans [2]; clone DDRT16, 24 hours, 100 μM CdCl2, value in parenthesis, by Northern blot",3.5 fold
same,"Fold-change in mRNA levels following cadmium exposure, VL1 (Northern blot)","C. elegans [2]; 8 hours, 100 μM CdCl2, value in parenthesis, by Northern blot",(4.7) fold
same,"Fold-change in mRNA levels following cadmium exposure, VL1 (Northern blot)","C. elegans [2]; 24 hours, 100 μM CdCl2, value in parenthesis, by Northern blot",(5.2) fold
same,"Fold-change in mRNA levels following cadmium exposure, VL19 (Northern blot)","C. elegans [2]; clone VL19, 24 hours, 100 μM CdCl2, value in parenthesis, by Northern blot",2.3 fold
same,"Fold-change in mRNA levels following cadmium exposure, VL21 (Northern blot)","C. elegans [2]; clone VL21, 24 hours, 100 μM CdCl2, value in parenthesis, by Northern blot",2 fold and 2.0 fold

# From patent publication US6916915B1, “Stressor regulated genes” (Duke University, priority 1998, dated 2005)
